From patent EP0420914B1, “COSMETIC AND SKIN TREATMENT COMPOSITIONS” (PROCYTE CORPORATION, priority 1988, dated 1994)

How the values were obtained:
pig skin = assay: Collagen content and angiogenic activity of pig skin biopsies after topical cream; format: in vivo
Method: In a typical experiment, a young pig was treated topically with a cream containing glycyl-(3-methyl)-L-histidyl-L-lysine:copper(II) or a placebo cream once a day for 12 days. Punch biopsies (6 mm dia.) were taken on day 0 and day 12. The biopsies were analyzed for total wet weight, alkaline phosphatase, total protein, and hydroxyproline content. Alkaline phosphatase is an enzyme marker for capillary endothelial cells and is an indicator of new angiogenesis. The hydroxyproline is a component of collagen, and increased hydroxyproline content indicates increased collagen content. The punch biopsies were prepared for biochemical analysis, basically by the method of Counts et al. (D. Counts, P. Knighten and G. Hegreberg, J. Invest. Derm. 69:521-26, 1977).
In a first experiment, an increase in alkaline phosphatase activity and hydroxyproline content was detected on day 12 in the biopsies taken from skin treated with glycyl-(3-methyl)-L-histidyl-L-lysine:copper(II) relative to the placebo-treated area.
The results obtained in a second experiment are graphically illustrated in Figure 4. In this experiment, biopsies were taken from the pig on days 0, 10 and 13 and analyzed for alkaline phosphatase activity.

[1] = system: dermis, epidermis and subcutis; assay: Histological thickness of dermis, epidermis and subcutis in mice after topical creams; format: in vivo, Swiss-Webster female mice; details: creams on days 0, 1, 3, 4 and 5, placebo had returned to naive control level
Method: Skin from 31 Swiss-Webster female mice (average age - 18 months) was evaluated histologically for evidence of changes in skin architecture following several applications of placebo- and peptide-containing cream formulations. Measurements were made of dermal, epidermal and subcutis thickness using an eyepiece micrometer at 100X power.
The mice had hair removed by a close clipping, and were treated on days 0, 1, 3, 4 and 5 with either glycyl-L-histidyl-L-lysine:copper(II), or representative derivatives glycyl-(3-methyl)-L-histidyl-L-lysine: copper(II) and glycyl-L-histidyl-L-lysyl-L-valyl-L-phenylalanyl-L-valine: copper(II), or a placebo cream (n = 5/group). Biopsies were performed on individual animals from the groups on days 6, 10, 12 and 14. In addition, eleven naive mice were biopsied on day 0.

dermis = assay: Ultrasound evaluation of dermal density after topical cream on the forearm; format: in vivo, human; details: 10 women; cream twice daily for three weeks, volar forearm; score 0 no change to 3 marked change; p = 0.029 versus placebo cream
Method: The effect of a representative composition, glycyl-(-3-methyl-L-histidyl-L-lysine:copper(II)(active agent), on the epidermis and dermis was evaluated by ultrasound. Ultrasound technique uses high-frequency sound, at 20 megahertz, to produce an echo signal of the skin. This signal is processed to produce a diagrammatic representation of the skin that is related to the structures of the skin by the strength of the reflected signal.
The topical cream containing glycyl-(3-methyl)-L-histidyl-L-lysine:copper(II) or a control cream was applied twice daily for three weeks to the volar surface of the forearms of 10 female subjects with an average age of 31.7 years, using both the right and left sides in a random fashion for each cream. Subjects were evaluated by ultrasound scans at days 1, 7, 14 and 21.
The dermal density after treatment as measured by ultrasound was evaluated on a scoring system whereby no change = 0, a slight change = 1, a moderate change = 2, and a marked change = 3. In 10 women treated with the cream-plus-active-agent, the average density score was 1.7, while the average score of the placebo-cream-only was 0.7. This difference was significant at a probability of p = 0.029.

human epidermis = assay: Epidermal cell turnover rate by clearance of dansyl chloride; format: in vivo; details: seven female subjects; daily topical cream, upper inner arm; compared with the corresponding untreated site
Method: The rate of cell turnover is determined by the number of days for clearance of dansyl chloride from stained stratum. Seven female subjects were used in the study, with an average age of 50.4 (± 3.8) years. Each subject was treated with 3% dansyl chloride in petrolatum on four sites on the upper inner arms. One site on each arm served as an untreated control and the other site as the treated site. Sites were randomized by computer as to left or right and as to proximal or distal areas of the upper arm. Twenty-four hours after occlusion, the sites were uncovered and photographed under ultraviolet light for fluorescence of the dansyl chloride. This photograph was designated as day 1. Photographs were made over the next four weeks until all subjects had completed the study, as determined by the final disappearance of the dansyl dye. The sites were then treated daily with a topical cream containing a representative composition, glycyl-(3-methyl)-L-histidyl-L-lysine:copper(II) or a control cream. The number of days for the total disappearance of the dansyl dye from the cream-treated sites was compared with the corresponding untreated site.

subcutaneous fat layer = assay: Formation of the subcutaneous fat layer after a single injection in mice (histology); format: in vivo; details: for subcutaneous fat layer at the area of injection: histology of the injected area
Method: A single dose of 50 micrograms of glycyl-L-histidyl-L-lysine n-octyl ester:Cu(II) was infiltrated under the skin in eight mice.
In another series of experiments, mice were injected once with glycyl-L-histidyl-L-lysine octyl ester:copper(II) at a dose of 500 micrograms per mouse.
This increase in subcutaneous fat is shown by taking a biopsy sample at day 21 through the area and sectioning for histology slides. […] The injected area is on the right with the adjacent uninjected area on the left of the photograph.
A group of ten mice were injected once with glycyl-L-histidyl-L-lysine decyl ester:copper(II) at a dose of 500 micrograms per mouse. Microscopic examination provided evidence of increased fat cell layer in the area surrounding the injection site.
A group of ten mice were injected once with glycyl-L-histidyl-L-lysine palmityl ester:copper(II) at a dose of 500 micrograms per mouse. Histological sections through the area of injection were similar to those described in Example VI.

skin = assay: Topical ointment on human skin, single-subject case reports; format: in vivo; details: person
Method: A person had skin covered by a sprinkled pattern of fine reddish spots of microhemorrhages beneath an irritated skin surface.
A person had skin covered with a scaly eczema-like surface.
A person with hair loss and numerous pigmented spots ("aging spots") was treated for 14 days on the top of their head with an ointment (consisting of 94% Unibase and 6% dimethysulfoxide) containing 4 milligrams of GHL-Cu octyl per gram.
A person had irritated skin with numerous pimples.

[2] = topical cream once a day for 12 days, 6 mm punch biopsy, day 12
[3] = injected once, 500 micrograms per mouse

In the case of “glycyl-(3-methyl)-L-histidyl-L-lysine:copper(II)”, the “alkaline phosphatase activity, second experiment (Figure 4)” value (pig skin; biopsies on days 0, 10 and 13, relative to placebo cream-treated areas) is reported as “increased alkaline phosphatase”, the “Angiogenic Activity (as alkaline phosphatase)” value (pig skin; [2]) is reported as 0.013 ± 0.001 inc A405/min/mg and the “Collagen Content (as hydroxyproline)” value (pig skin; [2]) is reported as 5.8 ± 0.2 µg/biopsy. The “epidermal thickness by day 14” value [1] was “maintained an increased epidermal thickness”, the “average density score (dermal density by ultrasound)” value (dermis) was 1.7 and the “increase of average skin turnover rate” value (human epidermis) was 30.0%.

“glycyl-L-histidyl-L-lysine decyl ester:copper(II)” was tested, and the “subcutaneous fat layer at the area of injection” value (subcutaneous fat layer; [3]) was “marked increase in the subcutaneous fat layer”.

In the case of “glycyl-L-histidyl-L-lysine n-octyl ester:copper(II)”, the “number and size of the fat cells” value (subcutaneous fat layer; injected once, 500 micrograms per mouse, biopsy at day 21) is reported as “increase in both the number and size of the fat cells”, the “increase in the subcutaneous fat layer in the skin near the injection site (fold)” value (subcutaneous fat layer; injected once, 500 micrograms per mouse, biopsy at day 21, versus adjacent uninjected area) is reported as “approximately threefold” and the “subcutaneous fat layer at the area of injection” value (subcutaneous fat layer; [3]) is reported as “significant increase in the thickness of the subcutaneous fat layer”. The “amounts of subcutaneous fat” value (subcutaneous fat layer; single dose of 50 micrograms infiltrated under the skin, eight mice) was “Increased amounts of subcutaneous fat were observed”, the “softness and thickness of the skin covering the head” value (skin; treated 14 days on top of head) was “noticeably softer to the touch and possessed a greater thickness” and the “number of aging spots” value (skin; treated 14 days on top of head, 4 milligrams per gram in 94% Unibase and 6% dimethysulfoxide, thirty days after start) was “marked reduction in the number of aging spots”. The “size of the remaining aging spots” value (skin; treated 14 days, thirty days after start) was “reduction in the size of the remaining spots”.

For “glycyl-L-histidyl-L-lysine palmityl ester:copper(II)”, the “subcutaneous fat layer at the area of injection” value (subcutaneous fat layer; [3]) was “increase in the subcutaneous fat layer”.

With “glycyl-L-histidyl-L-lysine: copper(II) [GHL-Cu]” the “reddish spots of microhemorrhages” value (skin; once daily for 9 days, 4 mg GHL-Cu per gram) was “complete clearing of the reddish spots”.

For “glycyl-L-histidyl-L-lysyl-L-valyl-L-phenylalanyl-L-valine: copper(II)”, the “epidermal thickness by day 14” value [1] was “maintained an increased epidermal thickness”.
